# Measured values taken from US12084472B2 (Ardelyx, Inc., priority 2015, dated 2024).
# Molecular target: T1, human TGR5 (Homo sapiens, UniProt Q8TDU6)
# T1 construct: expressed in transfected cells; host or cells: HEK293
# T1 sequence (Q8TDU6 1-330): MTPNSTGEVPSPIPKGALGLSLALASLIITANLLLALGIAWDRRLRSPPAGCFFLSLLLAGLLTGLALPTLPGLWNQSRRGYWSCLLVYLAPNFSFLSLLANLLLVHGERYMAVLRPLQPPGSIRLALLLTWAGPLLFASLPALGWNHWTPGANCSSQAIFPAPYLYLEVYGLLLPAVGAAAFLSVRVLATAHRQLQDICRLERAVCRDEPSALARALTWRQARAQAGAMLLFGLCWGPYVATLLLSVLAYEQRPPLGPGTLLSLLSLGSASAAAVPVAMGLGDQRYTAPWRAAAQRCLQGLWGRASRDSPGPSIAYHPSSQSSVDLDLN
# Assay: Cell-based TGR5 assay (cAMP generation, HTRF)
# Details: HEK293 cells stably transfected with human TGR5; cAMP by HTRF; 30 minutes at 37° C.; read-out: pEC50 Human TGR5 (converted)
# How it was run: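 First, compounds in 3-fold serial dilution were placed in HBSS with 10 mM HEPES pH 7.4 and 0.5 mM IBMX. Next, human TGR5-expressing HEK293 cells were added and incubated 30 min at 37° C. Finally, cAMP was detected by HTRF and pEC50 derived by logistic fitting.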
row,EC50 [nM],SMILES
1,< 100,"CN(CCOCCNC(=O)N[C@@H](CO)[C@@H](O)[C@H](O)[C@H](O)CO)S(=O)(=O)c1ccc(Cl)c(COC2(c3cnccc3-c3ccccc3OC3CC3)CC2)c1 (stereo in doubt) [Compound I-406, 1-(2-{2-[N-methyl4-chloro-3-({1-[4-(2-cyclopropoxyphenyl)pyridin-3-yl]cyclopropoxy}methyl)benzenesulfonamido]ethoxy}ethyl)-3-[(2S,3R,4S,5R)-1,3,4,5,6-pentahydroxyhexan-2-yl]urea]"
2,< 100,"CS(=O)(=O)NCCCN(CCCSc1ccc(Cl)c(CNC2(c3cnccc3-c3ccccc3OC3CC3)CC2)c1)C(=O)[C@@H](O)[C@@H](O)[C@H](O)[C@@H](O)CO [Compound I-588, (2S,3S,4R,5S)-N-[3-({4-chloro-3-[({1-[4-(2-cyclopropoxyphenyl)pyridin-3-yl]cyclopropyl}amino)methyl]phenyl}sulfanyl)propyl]-2,3,4,5,6-pentahydroxy-N-(3-methanesulfonamidopropyl) hexanamide]"
3,< 100,"COCCN(CCCCNC(=O)NC[C@H](O)[C@@H](O)[C@H](O)[C@H](O)CO)S(=O)(=O)c1ccc(Cl)c(COC2(c3cnccc3-c3ccccc3OC3CC3)CC2)c1 (stereo in doubt) [Compound I-407, 1-{4-[N-(2-methoxyethyl)4-chloro-3-({1-[4-(2-cyclopropoxyphenyl)pyridin-3-yl]cyclopropoxy}methyl)benzenesulfonamido]butyl}-3-[(2S,3R,4R,5R)-2,3,4,5,6-pentahydroxyhexyl]urea]"
4,< 100,"O=C(O)CN1CCN(CCNC(=O)CCCCc2cc(Cl)c(COC3(c4cnccc4-c4ccccc4OC4CC4)CC3)cc2Cl)CC1 [Compound I-91, 2-(4-(2-(5-(2,5-dichloro-4-((1-(4-(2-cyclopropoxyphenyl)pyridin-3-yl)cyclopropoxy)methyl)phenyl)pentanamido)ethyl)piperazin-1-yl)acetic acid]"
5,126 to 1000,"Cc1cc(CNC2(c3cnccc3-c3ccccc3OC3CC3)CC2)c(C)cc1CCCCC(=O)NC[C@H](O)[C@@H](O)[C@H](O)[C@H](O)CO [Compound I-148, 5-{4-[({1-[4-(2-cyclopropoxyphenyl)pyridin-3-yl]cyclopropyl}amino)methyl]-2,5-dimethylphenyl}-N-[(2S,3R,4R,5R)-2,3,4,5,6-pentahydroxyhexyl]pentanamide]"
6,< 100,"COCC(=O)N(CCCCc1cc(Cl)c(COC2(c3cnccc3-c3ccccc3OC3CC3)CC2)cc1Cl)C[C@H](O)[C@@H](O)[C@H](O)[C@H](O)CO [Compound I-72, N-{4-[2,5-dichloro-4-({1-[4-(2-cyclopropoxyphenyl)pyridin-3-yl]cyclopropoxy}methyl)phenyl]butyl}-2-methoxy-N-[(2S,3R,4R,5R)-2,3,4,5,6-pentahydroxyhexyl]acetamide]"
7,1260 to 10000,"CC(C)(CC(=O)O)CC(=O)N(CCCCc1cc(Cl)c(CNC2(c3cnccc3-c3ccccc3OC3CC3)CC2)cc1Cl)C[C@H](O)[C@@H](O)[C@H](O)[C@H](O)CO [Compound I-201, 4-[(4-{2,5-dichloro-4-[({1-[4-(2-cyclopropoxyphenyl)pyridin-3-yl]cyclopropyl}amino)methyl]phenyl}butyl)[(2S,3R,4R,5R)-2,3,4,5,6-pentahydroxyhexyl]carbamoyl]-3,3-dimethylbutanoic acid]"
8,126 to 1000,"O=S(=O)(NC[C@H](O)[C@@H](O)[C@H](O)[C@H](O)CO)c1ccc(Cl)c(COC2(c3cnccc3-c3ccccc3OC3CC3)CC2)c1 [Compound I-397, (2S,3R,4R,5R)-S-[4-chloro-3-({1-[4-(2-cyclopropoxyphenyl)pyridin-3-yl]cyclopropoxy}methyl)phenyl]-2,3,4,5,6-pentahydroxyhexane-1-sulfonamido]"
9,< 100,"Cc1ccc(C(C)CCCC(=O)N(CCO)C[C@H](O)[C@@H](O)[C@H](O)[C@H](O)CO)cc1COC1(c2cnccc2-c2ccccc2OC2CC2)CC1 (stereo partly drawn) [Compound I-376, 5-[3-({1-[4-(2-cyclopropoxyphenyl)pyridin-3-yl]cyclopropoxy}methyl)-4-methylphenyl]-N-(2-hydroxyethyl)-N-[(2S,3R,4R,5R)-2,3,4,5,6-pentahydroxyhexyl]hexanamide]"
